# How the values were obtained:
# PGC-1α gene [1] = assay: PGC-1α gene expression in Caco-2 cells (real-time PCR); format: cell-based, human; conditions: 10 μM, 24 hours after addition, relative to β-actin, vs DMSO control (FIG. 3)
# Protocol: (§1) Human colon cancer-derived cell line Caco-2 cells (colon, epithelial-like, colorectal adenocarcinoma, human, ATCC HTB-37) were passaged using DMEM (containing 10% FBS, antibiotics (penicillin and streptomycin), and NaHCO3) medium in a CO2 incubator under conditions of 37° C., 5% CO2, and 95% air, and used for testing.
# (§2) Caco-2 cells were seeded in a 12-well plate at a cell concentration of 3×10^5 cells/dish, and equol dissolved in DMSO was added at a final concentration of 10 μM after 24 hours and 48 hours. In addition, the same amount of DMSO was added to a control, and resveratrol (Wako Pure Chemical Industries, Ltd.) was added to a positive control at a final concentration of 10 μM.
# (§3) Cells were harvested 24 hours after the addition of equol, and total RNA was extracted. cDNA was synthesized using the total RNA and was used as a template for real-time PCR. Real-time PCR was performed using a primer of each gene and the prepared cDNA to measure the expression level of each gene. In addition, the relative gene expression level was calculated using β-actin, which is a housekeeping gene, by dividing the measured value by the expression level of β-actin. The orientation of the primer sequences is 5′ to 3′ from left to right.
# NAMPT gene [2] = assay: NAMPT gene expression in C2C12 cells (real-time PCR); format: cell-based, mouse; conditions: C2C12 cells (myotubes), 10 μM, 24 hours after addition, relative to β-actin, vs DMSO control (FIG. 7)
# Protocol: (§4) Mouse skeletal muscle-derived myoblast cell line C2C12 cells (Muscle, Myoblast, Mus musculus, mouse, ATCC CRL-1772 (strain C3H)) were passaged using DMEM (containing 10% FBS, antibiotics (penicillin and streptomycin), and NaHCO3) medium in a CO2 incubator under conditions of 37° C., 5% CO2, and 95% air.
# (§5) After the C2C12 cells reached about 90% confluence, the serum in the medium was replaced with inactivated horse serum, and the serum concentration was lowered to 2% to induce differentiation. Cells on day 5 after differentiation induction were used as C2C12 myotubes for testing.
# as §2, with “C2C12” for “Caco-2”, “resveratrol” for “resveratrol (Wako Pure Chemical Industries, Ltd.)”
# (§6) Cells were harvested 24 hours after the addition of equol, and total RNA was extracted. cDNA was synthesized using the total RNA and was used as a template for real-time PCR. […] In addition, the relative gene expression level was calculated using β-actin, which is a housekeeping gene, by dividing the measured value by the expression level of β-actin.
# PGC-1α gene [3] = assay: PGC-1α gene expression in C2C12 cells (real-time PCR); format: cell-based, mouse; conditions: C2C12 cells (myotubes), 10 μM, 24 hours after addition, relative to β-actin, vs DMSO control (FIG. 9)
# Protocol: as §4, §5
# as §2, with “C2C12” for “Caco-2”, “resveratrol” for “resveratrol (Wako Pure Chemical Industries, Ltd.)”
# as §6
# SIRT1 gene [4] = assay: SIRT1 gene expression in Caco-2 cells (real-time PCR); format: cell-based, human; conditions: 10 μM, 24 hours after addition, relative to β-actin, vs DMSO control (FIG. 2)
# Protocol: as §1, §2, §3
# Caco-2 cells [5] = assay: Intracellular NAD^+/NADH quantification in Caco-2 cells; format: cell-based, human; conditions: 10 μM, 24 hours after addition, vs DMSO control (FIG. 4)
# Protocol: (§7) Caco-2 cells were passaged in the same manner as in Example 1 and used for testing. Caco-2 cells were seeded in a 5-mL dish at a cell concentration of 3×10^5 cells/dish, and equol was added in the same manner as in Example 1. In addition, a control and a positive control were prepared in the same manner as well.
# The medium was removed 24 hours after the addition of equol, the cells were washed with PBS, then intracellular NAD^+ and NADH were measured using an NAD^+/NADH quantification kit (BioVision, San Francisco, USA), and the NAD^+/NADH ratio was determined.
# NAMPT gene [6] = assay: NAMPT gene expression in Caco-2 cells (real-time PCR); format: cell-based, human; conditions: 10 μM, 24 hours after addition, relative to β-actin, vs DMSO control (FIG. 1)
# Protocol: as §1, §2, §3
# Caco-2 cells [7] = assay: Intracellular mitochondria in Caco-2 cells (MitoTracker staining, imaging cytometer); format: cell-based, human; conditions: 10 μM, 24 hours after addition, vs DMSO control (FIG. 6)
# Protocol: as §7, with “μClear Fluorescence Black Plate (Greiner Bio-one)” for “5-mL dish”, “5×10^3” for “3×10^5”
# (§8) Mitochondria were stained using MotoTracker Red CMXRos (Invitrogen Corporation) 24 hours after the addition of equol. The cells were subjected to NI Cell Analyzer 1000 Imaging Cytometer (GE Healthcare Bio-Sciences Corp, Piscataway, NJ, USA) to detect intracellular mitochondria, and the image data were digitized using “mito Tracker” of NI Cell Analyzer 1000 Workstation (GE Healthcare Bio-Sciences Corp, Piscataway, NJ, USA).
# C2C12 cells = assay: Intracellular mitochondria in C2C12 myotubes (MitoTracker staining, imaging cytometer); format: cell-based, mouse; conditions: 10 μM, 72 hours after addition, vs DMSO control (FIG. 10)
# Protocol: as §8
# as §5, with “C2C12 cells were passaged in the same manner as in Example 7 and used for testing. C2C12 cells were seeded in a μClear Fluorescence Black Plate (Greiner Bio-one) at a cell concentration of 1×10^4 cells/well. After” for “After”, “the” for “the C2C12”
# Equol was added in the same manner as in Example 1. In addition, the same amount of DMSO was also used for a control.
# The number of mitochondria was measured 72 hours after the addition of equol in the same manner as in Example 4.
# SIRT1 gene [8] = assay: SIRT1 gene expression in C2C12 cells (real-time PCR); format: cell-based, mouse; conditions: C2C12 cells (myotubes), 10 μM, 24 hours after addition, relative to β-actin, vs DMSO control (FIG. 8)
# Protocol: as §4, §5
# as §2, with “C2C12” for “Caco-2”, “resveratrol” for “resveratrol (Wako Pure Chemical Industries, Ltd.)”
# as §6
# PGC-1α = PGC-1α expression level and acetyl PGC-1α level in Caco-2 cells (Western blotting, immunoprecipitation); format: cell-based, human; conditions: 10 μM, 24 hours after addition, vs DMSO control (FIGS. 5-1, 5-2)
# Protocol: as §7
# The medium was removed 24 hours after the addition of equol, the cells were washed with PBS, and then cellular proteins were extracted. The extracted proteins were subjected to Western blotting using an anti-PGC-1α antibody (ab77210, abcam, Cambridge, UK) to measure the expression level of PGC-1α. Furthermore, after immunoprecipitation using an anti-acetylated-lysine antibody (#9441S, Cell Signaling Technology, Danvers, MA, USA), the acetyl PGC-1α level was measured by Western blotting.
smiles,measurement,setting,value
"Oc1ccc([C@H]2COc3cc(O)ccc3C2)cc1 [equol, 4′,7-isoflavandiol]",expression level of PGC-1α gene,PGC-1α gene [1],increased the expression levels
same,expression level of NAMPT gene,NAMPT gene [2],increased the expression levels
same,expression level of PGC-1α gene,PGC-1α gene [3],increased the expression levels
same,expression level of SIRT1 gene,SIRT1 gene [4],increased the expression levels
same,NAD^+ (NAD^+/NADH ratio),Caco-2 cells [5],increased NAD^+
same,expression level of NAMPT gene,NAMPT gene [6],increased the expression levels
same,number of intracellular mitochondria,Caco-2 cells [7],increased the number of intracellular mitochondria
same,number of intracellular mitochondria,C2C12 cells,increased the number of intracellular mitochondria
same,expression level of SIRT1 gene,SIRT1 gene [8],increased the expression levels
same,deacetylation of PGC-1α (acetyl PGC-1α level),PGC-1α,promote deacetylation of PGC-1α
same,"expression level of PGC-1α (protein, Western blotting)",PGC-1α,increased the expression level of PGC-1α

# Source: patent US12678421B2, “Composition for enhancing NAMPT gene expression” (DAICEL CORPORATION, priority 2020, dated 2026)
